Results taken from ChEMBL document CHEMBL3137667, “[Drug-induced liver injury; fourteenth updated edition of the bibliographic database of liver injuries and related drugs]” (Gastroenterol Clin Biol, 2004).

Tests used:
[1] = Times to onset, minimal and maximal, observed in the indexed observations. [column 'DELAI' in source]; conditions: human
[2] = human
[3] = human; remark: listed apart in the source
[4] = Highest frequency of acute liver toxicity observed during clinical trials, expressed as a percentage. [column '% AIGUE' in source]; conditions: human
[5] = human; remark: listed apart in the source
[6] = Highest frequency of moderate liver toxicity observed during clinical trials, expressed as a percentage. [column '% BIOL' in source]; conditions: human
[7] = human; remark: listed apart in the source
[8] = human; remark: listed apart in the source
[9] = human, serum, 4383 h
[10] = human; remark: listed apart in the source
[11] = human, serum
[12] = human; remark: listed apart in the source
[13] = human; remark: listed apart in the source
[14] = human; remark: listed apart in the source
[15] = human, serum; remark: listed apart in the source
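Throughout, for Hepatotoxicity (association with vascular disease): count of indexed literature references reporting vascular liver injury in humans, e.g. peliosis hepatitis, hepatic veno-occlusive disease or Budd-Chiari syndrome.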
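Throughout, for Hepatotoxicity (benign tumour): value is a count of indexed literature references citing a benign tumour confirmed by histopathology.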
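Throughout, for Hepatotoxicity (choleostasis): human cholestatic liver injury, shown by histopathology or by peak ALT or AST elevation over alkaline phosphatase ratio below 2, value counts indexed literature reports.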
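Throughout, for Hepatotoxicity (chronic liver disease): chronic liver injury confirmed by histopathology or persistently raised serum aminotransferase activity beyond 6 months, value given as the count of indexed literature references.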
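Throughout, for Hepatotoxicity (cirrhosis): value is a count of indexed literature references reporting cirrhosis confirmed by histopathology.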
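Throughout, for Hepatotoxicity (cytolytic): human cytolytic liver injury, shown by histopathology or by a ratio above 5 of peak ALT or AST elevation to alkaline phosphatase elevation, value counts indexed references.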
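Throughout, for Hepatotoxicity (granulomatous hepatitis): value is a count of indexed literature references reporting granulomatous liver disease confirmed by histopathology.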
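Throughout, for Hepatotoxicity (malignant tumour): malignant tumour confirmed by histopathology, value gives the count of indexed literature references reporting it.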
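Throughout, for Hepatotoxicity (severe hepatitis): human clinical data: severe hepatitis, meaning potentially life-threatening liver failure or clinically observed cases, the value counts how many indexed literature references report it.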
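Throughout, for Hepatotoxicity (steatosis): steatosis confirmed by histopathology, value is the count of indexed references.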

SMILES | Hepatotoxicity (time to onset) [1] | Hepatotoxicity (malignant tumour) [2] | Hepatotoxicity (cytolytic) [3] | Hepatotoxicity (acute) [4] | Hepatotoxicity (steatosis) [5] | Hepatotoxicity (moderate) [6] | Hepatotoxicity (severe hepatitis) [7] | Hepatotoxicity (cirrhosis) [8] | Hepatotoxicity (chronic liver disease) [9] | Hepatotoxicity (association with vascular disease) [10] | Hepatotoxicity (acute) [11] | Hepatotoxicity (granulomatous hepatitis) [12] | Hepatotoxicity (choleostasis) [13] | Hepatotoxicity (benign tumour) [14] | Hepatotoxicity (moderate) [15]
Clc1ccccc1C(c1ccccc1)(c1ccccc1)n1ccnc1 [CLOTRIMAZOLE] | 17 days | 0 | 0 | 0% | 0 | 40% | 0 | 0 | 0 | 0 | 0 | 0 | 0 | 0 | 8
C1CC1 [CYCLOPROPANE] | 1 day - 2 weeks | 0 | 3 | 0% | 0 | 0% | 2 | 0 | 0 | 0 | 3 | 0 | 0 | 0 | 0
N[C@@H]1CON=C1O [CYCLOSERINE] | 11 weeks | 0 | 2 | 5.4% | 0 | 13% | 1 | 0 | 0 | 0 | 2 | 0 | 0 | 0 | 3
Cc1c(O)c(=O)ccn1C [DEFERIPRONE] | 3 months | 0 | 1 | 1.2% | 0 | 59.5% | 0 | 0 | 0 | 0 | 1 | 0 | 0 | 0 | 8
CC(=O)N(O)CCCCCNC(=O)CCC(=O)N(O)CCCCCNC(=O)CCC(=O)N(O)CCCCCN [DEFEROXAMINE] | 6 weeks | 0 | 1 | 0% | 0 | 28% | 1 | 0 | 0 | 0 | 1 | 0 | 0 | 0 | 1
CNCCON=c1c2ccccc2ccc2ccccc12 [DEMEXIPTILINE] | 6 weeks | 0 | 1 | 0% | 0 | 0% | 0 | 0 | 0 | 0 | 1 | 0 | 1 | 0 | 0
NC(=O)CC[C@@H]1NC(=O)[C@H](Cc2ccccc2)NC(=O)[C@H](Cc2ccc(O)cc2)NC(=O)CCSSC[C@@H](C(=O)N2CCC[C@H]2C(=O)N[C@H](CCCN=C(N)N)C(=O)NCC(N)=O)NC(=O)[C@H](CC(N)=O)NC1=O [DESMOPRESSIN] | 5 days - 4 weeks | 0 | 0 | 0% | 0 | 20% | 0 | 0 | 0 | 0 | 0 | 0 | 0 | 0 | 2
CCN[C@@H](C)Cc1cccc(C(F)(F)F)c1 [DEXFENFLURAMINE] | 4 years | 0 | 0 | 0% | 0 | 0% | 0 | 1 | 0 | 0 | 0 | 0 | 0 | 0 | 0
O=[As](O)(O)c1ccc(NCCNc2ccc([As](=O)(O)O)cc2)cc1 [DIFETARSONE] | 2 days - 3 weeks | 0 | 2 | 0% | 0 | 6% | 0 | 0 | 0 | 0 | 2 | 0 | 2 | 0 | 1
CC(=O)O[C@@]12CO[C@@H]1C[C@H](O)[C@@]1(C)C(=O)[C@H](O)C3=C(C)[C@@H](OC(=O)[C@H](O)[C@@H](NC(=O)OC(C)(C)C)c4ccccc4)C[C@@](O)([C@@H](OC(=O)c4ccccc4)[C@H]21)C3(C)C.O.O.O [DOCETAXEL] | 3 days - 8 days | 0 | 2 | 14.3% | 0 | 20% | 1 | 0 | 0 | 0 | 4 | 0 | 1 | 0 | 3
O=c1[nH]c2ccccc2n1CCCN1CCC(n2c(=O)[nH]c3cc(Cl)ccc32)CC1 [DOMPERIDONE] | < 1 week | 0 | 1 | 0% | 0 | 0% | 0 | 0 | 0 | 0 | 1 | 0 | 0 | 0 | 0
CN1c2c(oc(=O)n(-c3ccccn3)c2=O)-c2ccccc2S1(=O)=O [DROXICAM] | 10 days - 7 weeks | 0 | 4 | > 0% | 0 | 0% | 0 | 0 | 0 | 0 | 7 | 1 | 6 | 0 | 0
CS[C@H]1SC[C@H]2C(=O)N(C)[C@@H](C(C)C)C(=O)OC[C@@H](NC(=O)c3cnc4ccccc4n3)C(=O)N[C@@H](C)C(=O)N(C)[C@@H]1C(=O)N(C)[C@@H](C(C)C)C(=O)OC[C@@H](NC(=O)c1cnc3ccccc3n1)C(=O)N[C@@H](C)C(=O)N2C [ECHINOMYCIN] | 4 days - 19 days | 0 | 3 | 4.8% | 0 | 29.4% | 1 | 0 | 0 | 0 | 4 | 0 | 0 | 0 | 8
Clc1ccc(COC(Cn2ccnc2)c2ccc(Cl)cc2Cl)cc1 (stereo not given) [ECONAZOLE] | 4 months | 0 | 0 | 0% | 0 | 0% | 0 | 0 | 0 | 0 | 1 | 0 | 0 | 0 | 1
